Read-outs that look alike come from different tables or passages of the source.
Experiments:
[1] = additive used in the salt screen, cited from earlier work
[2] = pKa of basic sites / additives; type: physicochemical; details: two basic sites for salt formation
Text: Fifty-three counterions and stoichiometric combinations were selected. Table 1 provides a summary of the additives, pKa values, method of dosing and equivalents dosed for each additive.

| pKa [2] | pKa ([2]; read-out: pKa) | SMILES | pKa ([1]; first pKa value) | pKa ([1]; second pKa value) |
| --- | --- | --- | --- | --- |
|  |  | O=C(O)[C@@H](O)c1ccccc1 [L-Mandelic acid] | 3.4 |  |
|  |  | CC1(C)C2CCC1(CS(=O)(=O)O)C(=O)C2 (stereo not shown) [Camphor-10-sulfonic acid] | −2.2 |  |
|  |  | CC1(C(=O)O)CCC(C(=O)O)C1(C)C (stereo not shown) [Camphoric acid] | 4.7 | 5.8 |
|  |  | O=C(O)C(O)c1ccccc1 (racemic) [DL-Mandelic acid] | 3.4 |  |
| 6.4 | 9.3 | Cc1cnc(Nc2ccc(OCCN3CCCC3)cc2)nc1Nc1cccc(S(=O)(=O)NC(C)(C)C)c1 [Compound 1, N-tert-butyl-3-[(5-methyl-2-{[4-(2-pyrrolidin-1-ylethoxy)phenyl]amino}pyrimidin-4-yl)amino]benzenesulfonamide] |  |  |
